# From patent US20050124021A1 (priority 2000, published 2005)
# Columns and labels:
# [1] = test system: M. smegmatis strain 49::H37Rv A18
# [2] = target: T1, Rv1170 (Mycobacterium tuberculosis, UniProt P9WJN3); format: biochemical, M. tuberculosis
# [3] = target: T1, Rv1170; format: biochemical, M. tuberculosis; remark: listed apart in the source
# T1 sequence (P9WJN3 whole entry, looked up): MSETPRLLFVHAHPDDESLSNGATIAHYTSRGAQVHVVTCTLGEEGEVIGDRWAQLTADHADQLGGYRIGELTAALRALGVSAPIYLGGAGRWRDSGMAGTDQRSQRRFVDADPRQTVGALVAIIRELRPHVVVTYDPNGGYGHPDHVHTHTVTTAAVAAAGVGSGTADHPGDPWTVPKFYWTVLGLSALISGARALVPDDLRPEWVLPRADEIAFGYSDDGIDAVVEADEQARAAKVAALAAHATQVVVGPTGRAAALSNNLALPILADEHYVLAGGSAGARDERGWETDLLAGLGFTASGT
SMILES,Reduction of the peroxide sensitivity of mutant 49 [1],"Activity, deacetylase reaction (analysis for amine / deacetylase product) [2]",Decrease in reactivity versus GlcNAc-Ins (removal of inositol residue) [2],Deacetylated by the invention deacetylase [2],"Activity, amidase cleavage (analysis for AcCySmB or AcCys) [3]"
"OO [H2O2, hydrogen peroxide]",by a factor of two,–,–,–,–
"CC(=O)N[C@H]1C(O)O[C@H](CO)[C@@H](O)[C@@H]1O (stereo partly drawn) [GlcNAc, N-acetylglucosamine]",–,0.087 ± 0.005 nmol min^−1 mg of protein^−1,more than 300 fold,–,–
"CC(=O)N[C@@H](CS)C(=O)N[C@H]1[C@@H](OC2[C@H](O)[C@H](O)C(O)[C@H](O)[C@H]2O)O[C@H](CO)[C@@H](O)[C@@H]1O (stereo partly drawn) [MSH, 1-D-myo-inosityl-2-(N-acetylcysteinyl)amido-2-deoxy-α-D-glucopyranoside]",–,<10^−4 nmol min^−1 mg of protein^−1,–,neither MSH nor MSmB is deacetylated,0.002 ± 0.001 nmol min^−1 mg of protein^−1
